# According to patent publication US8748608B2, “4-phenylpiperazine derivatives with functionalized linkers as dopamine D3 receptor selective ligands and methods of use” (The United States of America as Represented by the …, priority 2007, dated 2014):
# Where two headings read alike, the source gives them in different places.
# Tests used:
# [1] = target: serotonin 5HT1A receptor (Homo sapiens (Human), UniProt P08908); test: Serotonin receptor binding, 5HT1A; conditions: ratio of affinities
# Excerpt: (§1) The procedures to determine the binding affinities at the human dopamine D2-like receptors, the binding affinities at the serotonin 5HT1A, 5HT2A and 5HT2c receptors and functional mitogenesis assay are known in the art. See J. Med. Chem. 2005, 48, 839-848. See also, NIDA Research Monograph #178, Proceedings of the College of Drug Dependence, p. 440-466, 1998. Both of these references are incorporated by reference.
# [2] = target: human dopamine D3 receptor (Homo sapiens (Human), UniProt P35462); test: Human D2-like receptor competition binding in HEK cells, D3; conditions: for D2/D3: ratio of Ki at D2 over Ki at D3
# Chain of human dopamine D3 receptor (P35462 whole entry): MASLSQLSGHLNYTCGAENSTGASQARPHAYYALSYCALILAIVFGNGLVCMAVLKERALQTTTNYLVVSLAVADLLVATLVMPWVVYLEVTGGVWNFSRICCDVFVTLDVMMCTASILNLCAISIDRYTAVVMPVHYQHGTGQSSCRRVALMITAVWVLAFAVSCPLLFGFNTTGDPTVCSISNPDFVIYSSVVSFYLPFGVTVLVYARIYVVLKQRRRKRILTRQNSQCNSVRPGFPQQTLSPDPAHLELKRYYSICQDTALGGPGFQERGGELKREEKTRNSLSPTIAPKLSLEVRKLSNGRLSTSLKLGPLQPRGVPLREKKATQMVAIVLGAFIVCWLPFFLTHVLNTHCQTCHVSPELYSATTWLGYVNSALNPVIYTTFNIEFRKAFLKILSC
# Excerpt: (§2) Human dopamine D2-long (D2) and D3 (D3) receptors were expressed in HEK cells. In brief, stably transfected HEK cells expressing the human D2-long and the D3 dopamine receptor were developed using the pIRES bicistronic expression vector (CLONTECH; Palo Alto, Calif.). […] For comparison, human dopamine D4 (D4) receptors were obtained from HEK 293 cells stably transfected with a PCR product of a human cDNA coding for the D4.4 form of the human D4 dopamine receptor.
# (§3) The procedures to determine the binding affinities at the human dopamine D2-like receptors, the binding affinities at the serotonin 5HT1A, 5HT2A and 5HT2c receptors and functional mitogenesis assay are known in the art. […] Both of these references are incorporated by reference.
# [3] = target: human dopamine D2-long (D2) receptor (Homo sapiens (Human), UniProt P14416); test: Human D2-like receptor competition binding in HEK cells, D2; conditions: hD2L
# Chain of human dopamine D2-long (D2) receptor (P14416 whole entry): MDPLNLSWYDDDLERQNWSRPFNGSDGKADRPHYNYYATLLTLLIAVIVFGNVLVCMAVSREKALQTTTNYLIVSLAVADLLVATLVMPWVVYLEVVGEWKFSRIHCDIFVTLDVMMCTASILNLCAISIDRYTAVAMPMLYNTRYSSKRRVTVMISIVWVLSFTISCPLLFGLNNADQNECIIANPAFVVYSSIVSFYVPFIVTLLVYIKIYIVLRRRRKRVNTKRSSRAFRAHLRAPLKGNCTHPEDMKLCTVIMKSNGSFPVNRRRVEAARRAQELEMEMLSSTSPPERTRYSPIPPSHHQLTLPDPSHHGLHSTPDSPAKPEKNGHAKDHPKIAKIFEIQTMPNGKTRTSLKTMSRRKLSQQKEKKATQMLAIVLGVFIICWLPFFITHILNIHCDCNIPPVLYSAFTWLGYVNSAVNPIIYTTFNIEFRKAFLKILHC
# Excerpt: as §2, §3
# [4] = target: T1, D2 receptor (human) in CHOp-cells (Homo sapiens (Human), UniProt P14416); test: D2 inhibition of quinpirole stimulation of mitogenesis (antagonist assay); type: cell-based; conditions: inhibition of 30 nM quinpirole stimulated mitogenesis, read-out: IC50 ± S.E.M., D2
# T1 sequence (P14416 whole entry): as above
# Procedure: (§4) The cells were incubated at 37° C. in α-MEM with 10% FBS, 0.05% penicillin-streptomycin, and 200 μg/mL of G418. After 48 hours, the cells were rinsed twice with serum-free α-MEM and incubated for 24 hours at 37° C. In the functional assay for agonism, the medium was removed and replaced with 90 μl of serum-free α-MEM and 10 μl of test compound in sterile water; in the antagonist assay, the test compound was diluted in sterile water plus 30 nM quinpirole. After another 24-hour incubation at 37° C., 0.25 μCi of [^3H]thymidine was added to each well and the plates were further incubated for 2 hours at 37° C. The cells were then trypsinized, and the plates were filtered and counted as usual in the art. Quinpirole was run on every plate as an internal standard.
# as §3
# [5] = target: T2, human dopamine D3 receptors in CHO cells (Homo sapiens (Human), UniProt P35462); test: D3 inhibition of quinpirole stimulation of mitogenesis (antagonist assay); type: cell-based; conditions: inhibition of 30 nM quinpirole stimulated mitogenesis, CHOp cells; read-out: IC50 ± S.E.M., D3
# T2 sequence (P35462 whole entry): as the sequence (P35462 whole entry) above
# Procedure: as §4, §3
# [6] = target: serotonin 5HT2c receptor (Homo sapiens (Human), UniProt P28335); test: Serotonin receptor binding, 5HT2c; conditions: ratio of affinities, 5HT2c over D3
# Chain of serotonin 5HT2c receptor (P28335 33-458): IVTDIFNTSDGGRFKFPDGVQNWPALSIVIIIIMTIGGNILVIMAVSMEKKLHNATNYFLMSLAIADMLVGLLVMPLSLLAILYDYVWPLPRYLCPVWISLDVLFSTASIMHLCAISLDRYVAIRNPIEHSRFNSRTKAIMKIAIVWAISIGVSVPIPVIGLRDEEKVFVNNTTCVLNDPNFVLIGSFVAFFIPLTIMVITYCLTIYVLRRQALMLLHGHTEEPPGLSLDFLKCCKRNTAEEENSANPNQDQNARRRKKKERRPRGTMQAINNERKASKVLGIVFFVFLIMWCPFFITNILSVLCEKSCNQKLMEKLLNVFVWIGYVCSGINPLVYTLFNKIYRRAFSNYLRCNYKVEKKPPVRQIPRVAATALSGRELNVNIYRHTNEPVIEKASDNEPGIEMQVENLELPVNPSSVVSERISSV
# Excerpt: as §3
# [7] = target: serotonin 5HT2A receptor (Homo sapiens (Human), UniProt P28223); test: Serotonin receptor binding, 5HT2A; conditions: ratio of affinities
# Chain of serotonin 5HT2A receptor (P28223 whole entry): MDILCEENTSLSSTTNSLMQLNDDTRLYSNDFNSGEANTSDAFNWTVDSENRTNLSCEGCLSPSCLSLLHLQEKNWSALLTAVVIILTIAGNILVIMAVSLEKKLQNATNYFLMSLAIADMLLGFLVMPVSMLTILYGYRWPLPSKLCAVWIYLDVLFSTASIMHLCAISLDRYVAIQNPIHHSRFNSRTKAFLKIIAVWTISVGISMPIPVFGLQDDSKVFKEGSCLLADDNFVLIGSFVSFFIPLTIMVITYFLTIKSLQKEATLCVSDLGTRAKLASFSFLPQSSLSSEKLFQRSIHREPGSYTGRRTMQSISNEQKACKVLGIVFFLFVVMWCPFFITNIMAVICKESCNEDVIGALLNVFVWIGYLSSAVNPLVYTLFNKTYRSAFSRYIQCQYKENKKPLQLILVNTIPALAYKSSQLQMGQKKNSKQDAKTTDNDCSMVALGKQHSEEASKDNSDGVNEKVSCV
# Excerpt: as §3
# [8] = target: T1, D2 receptor (human) in CHOp-cells; test: D2 stimulation of mitogenesis (agonist assay); type: cell-based; conditions: for EC50: read-out: partial agonist activity: EC50, D2
# Procedure: as §4, §1
# [9] = target: T3, human D4.4 dopamine receptor (Homo sapiens (Human), UniProt P21917); test: Human D2-like receptor competition binding in HEK cells, D4; conditions: for Ki: HEK 293 cells, hD4.4; for D4/D3 Ki ratio: head printed D4/D2, values correspond to D4 Ki over D3 Ki
# T3 sequence (P21917 whole entry): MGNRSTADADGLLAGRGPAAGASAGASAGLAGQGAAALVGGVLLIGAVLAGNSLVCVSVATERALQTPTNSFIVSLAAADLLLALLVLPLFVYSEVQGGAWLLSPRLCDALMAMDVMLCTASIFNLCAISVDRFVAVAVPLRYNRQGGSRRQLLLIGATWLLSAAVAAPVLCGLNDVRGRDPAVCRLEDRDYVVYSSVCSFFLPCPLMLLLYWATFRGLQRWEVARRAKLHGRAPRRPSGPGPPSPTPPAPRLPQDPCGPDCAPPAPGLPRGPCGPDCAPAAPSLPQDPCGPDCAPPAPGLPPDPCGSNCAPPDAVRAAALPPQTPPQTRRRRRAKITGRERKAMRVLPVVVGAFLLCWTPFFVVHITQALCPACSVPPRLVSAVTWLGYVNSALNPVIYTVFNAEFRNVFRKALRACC
# Excerpt: as §2, §3
# [10] = target: T2, human dopamine D3 receptors in CHO cells; test: D3 stimulation of mitogenesis (agonist assay); type: cell-based; conditions: CHOp cells; for EC50: read-out: partial agonist activity: EC50, D3 (converted)
# Procedure: as §4, §1
# [11] = target: T3, human D4.4 dopamine receptor; conditions: HEK 293 cells; relative to D2 and D3; cited from earlier work
# [12] = system: σ1 binding sites; conditions: cited from earlier work
# [13] = target: D1a dopamine receptors (Homo sapiens (Human), UniProt P21728); conditions: cited from earlier work
# Chain of D1a dopamine receptors (P21728 whole entry): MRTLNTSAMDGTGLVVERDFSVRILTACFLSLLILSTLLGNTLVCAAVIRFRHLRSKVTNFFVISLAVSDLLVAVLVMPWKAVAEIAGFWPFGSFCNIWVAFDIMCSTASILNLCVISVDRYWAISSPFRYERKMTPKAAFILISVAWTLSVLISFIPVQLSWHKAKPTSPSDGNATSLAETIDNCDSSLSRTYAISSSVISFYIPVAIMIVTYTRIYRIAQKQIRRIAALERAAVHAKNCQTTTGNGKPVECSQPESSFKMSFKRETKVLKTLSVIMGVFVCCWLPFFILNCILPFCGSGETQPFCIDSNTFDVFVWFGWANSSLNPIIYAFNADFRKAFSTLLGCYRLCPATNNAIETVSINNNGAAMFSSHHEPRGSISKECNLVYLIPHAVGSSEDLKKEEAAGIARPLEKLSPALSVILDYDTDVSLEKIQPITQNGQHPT
# [14] = system: σ2 binding sites; conditions: cited from earlier work
# [15] = HEK cells, hD3, read-out: D3 Ki
# [16] = Table 3, unit inferred, with spread, read-out: D3 binding affinity
# Chain of serotonin 5HT1A receptor (P08908 whole entry): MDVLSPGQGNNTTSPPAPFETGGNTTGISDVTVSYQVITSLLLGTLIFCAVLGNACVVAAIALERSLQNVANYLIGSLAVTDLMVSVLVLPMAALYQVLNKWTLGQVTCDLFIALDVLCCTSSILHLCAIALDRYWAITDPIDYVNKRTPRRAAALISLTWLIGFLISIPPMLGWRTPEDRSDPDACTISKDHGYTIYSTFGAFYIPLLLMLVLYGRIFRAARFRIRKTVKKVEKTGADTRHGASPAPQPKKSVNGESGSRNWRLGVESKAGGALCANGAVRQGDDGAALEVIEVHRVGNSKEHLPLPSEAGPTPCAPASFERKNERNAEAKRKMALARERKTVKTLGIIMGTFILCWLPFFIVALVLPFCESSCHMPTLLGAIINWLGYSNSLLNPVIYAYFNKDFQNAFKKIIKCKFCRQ
SMILES,5HT1A/D3 [1],"Ki [2, 15] [nM]","Ki [2, 16] [nM]",D2/D3 [2],Ki [3] [nM],IC50 [4] [nM],IC50 [5] [nM],5HT2c/D [6],5HT2A/D3 [7],"partial agonist activity: % stimulation, D2 [8] [%]",EC50 [8] [nM],Ki [9] [µM],D4/D3 Ki ratio [9],"partial agonist activity: % stimulation, D3 [10] [%]",EC50 [10] [nM],fold lower affinity to human D4.4 dopamine receptors [11],affinity to σ1 binding sites [12],affinity to D1a dopamine receptors [13],affinity to σ2 binding sites [14]
"Cc1cccc(-c2ccc(C(=O)NC/C=C/CN3CCN(c4cccc(Cl)c4Cl)CC3)cc2)n1 [Compound 10, N-(4-(4-(2,3-Dichloro-phenyl)-piperazin-1-yl)-trans-but-2-enyl)-4-(6-methyl-pyridin-2-yl)-benzamide]",221,1.4,1.4 ± 0.3,75,105,1300 ± 320,6.7 ± 2.6,69,66,–,–,–,–,–,–,–,–,–,–
"Cc1cccnc1-c1ccc(C(=O)NC/C=C/CN2CCN(c3cccc(Cl)c3Cl)CC2)cc1 [Compound 11, N-(4-(4-(2,3-Dichlorophenyl)piperazin-1-yl)-trans-but-2-enyl)-4-(3-methyl-pyridin-2-yl)-benzamide]",58,1.6,1.6 ± 0.4,58,92,368 ± 113,25.6 ± 8.5,19,29,–,–,–,–,–,–,–,–,–,–
"O=C(NC/C=C/CN1CCN(c2cccc(Cl)c2Cl)CC1)c1ccc(-c2cccc[n+]2[O-])cc1 [Compound 12, N-(4-(4-(2,3-Dichloro-phenyl)-piperazin-1-yl)-trans-but-2-enyl)-4-(pyridin-N-oxide-2-yl)-benzamide]",–,1.1,1.1 ± 0.3,–,25.8,22.9 ± 2,–,–,–,31,231,–,–,–,–,–,–,–,–
"O=C(NCCC(O)CN1CCN(c2cccc(Cl)c2Cl)CC1)c1ccc(-c2ccccn2)cc1 (centres unmarked) [Compound 16, N-(4-(4-(2,3-Dichlorophenyl)piperazin-1-yl)-3-hydroxybutyl)-4-pyridin-2-yl-benzamide]",11,3,3 ± 0.2,89,267,–,–,38,14,26,15.8 ± 2.7,4.62,1540,48,1 ± 0.1,–,–,–,–
"COc1ccccc1N1CCN(CC(O)CCNC(=O)c2ccc(-c3ccccn3)cc2)CC1 (centres unmarked) [Compound 18, N-(3-Hydroxy-4-(4-(2-methoxy-phenyl)-piperazin-1-yl)-butyl)-4-pyridin-2-yl-benzamide]",13,2.8,2.8 ± 0.8,101,284,–,12.8 ± 1.3,1407,248,–,–,1.49,532,–,–,–,–,–,–
"O=C(NCC(O)CCN1CCN(c2cccc(Cl)c2Cl)CC1)c1ccc(-c2ccccn2)cc1 (centres unmarked) [Compound 21, N-(4-(4-(2,3-Dichlorophenyl)piperazin-1-yl)-2-hydroxybutyl)-4-(pyridin-2-yl)-benzamide]",30,0.5,0.5 ± 0.1,57,28.4,88.3 ± 15.7,5.4 ± 1.8,50,31,–,–,–,–,20,3.4,–,–,–,–
COc1cc([125I])cc(C(=O)NC2CC3CCCC(C2)N3Cc2ccccc2)c1OC (centres unmarked) [^125I-IABN],–,–,–,–,–,–,–,–,–,–,–,–,–,–,–,7- to 10 fold,low affinity,low affinity,low affinity
